test system: purified human Hsp90; experiment: Binding Assay: fluorescence polarization with BODIPY-labeled geldanamycin; conditions: 5 μM compound, BODIPY-GM 10 nM, Hsp90 30 nM
Outline: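 Compounds in 2% DMSO final compete with 10 nM BODIPY-GM for 30 nM purified human Hsp90, incubated overnight at room temperature in pH 7.3 HEPES buffer containing Na2MoO4 and DTT. Polarization (mP, ex/em 485/530) normalized to DMSO gives percent inhibition; autofluorescence-confounded data excluded.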

SMILES	% Inhibition at 5 μM Compound Concentration [%]
COc1cc(Sc2nc3c(N)nc[n+](CCC4CCN(C=O)CC4)c3[nH]2)cc(OC)c1OC [Example 541, 4-(2-{6-Amino-8-[(3,4,5-trimethoxyphenyl)thio]-3 H-purin-3-yl}ethyl)piperidine-1-carbaldehyde]	4.00
Nc1ncn(CCC2CCCCN2S(=O)(=O)C(F)(F)F)c2nc(Sc3cc4c(cc3Br)OCO4)nc1-2 (centres unmarked) [Example 397, 8-[(6-Bromo-1,3-benzodioxol-5-yl)thio]-3-(2-{1-[(trifluoromethyl)sulfonyl]piperidin 2-yl}ethyl)-3H-purin-6-amine]	1
CCOC(=O)[C@@H]1C[C@H](CCn2cnc(N)c3nc(Sc4cc5c(cc4Br)OCO5)nc2-3)CCN1 (relative stereo) [Example 482, Ethyl cis-4-(2-{6-amino-8-[(6-bromo-1,3-benzodioxol-5-yl)thio]-3 H-purin-3-yl}ethyl)piperidine-2-carboxylate]	0.0
COc1ccc(C)cc1Sc1nc2c(N)ncn(CCc3ccccc3Cl)c-2n1 [Example 325, 3-[2-(2-Chlorophenyl)ethyl]-8-[(2-methoxy-5-methylphenyl)thio]-3H-purin-6-amine]	0.0
COc1ccc(OC)c(Sc2nc3c(N)ncnc3n2CCc2ccccc2[N+](=O)[O-])c1 [Example 205, 8-(2,5-Dimethoxy-phenylsulfanyl)-9-[2-(2-nitro-phenyl)-ethyl]-9H-purin-6-ylamine]	80
COc1ccc(OC)c(Sc2nc3c(N)ncnc3n2CCc2cccc(Cl)c2Cl)c1 [Example 73, 9-[2-(2,3-Dichloro-phenyl)-ethyl]-8-(2,5-dimethoxy-phenylsulfanyl)-9H-purin-6-ylamine]	2
Nc1ncn(CCC(N)C2CC2)c2nc(Sc3cc4c(cc3Br)OCO4)nc1-2 (centres unmarked) [Example 688, 3-(3-Amino-3-cyclopropylpropyl)-8-[(6-bromo-1,3-benzodioxol-5-yl)thio]-3H-purin-6-amine]	30
Nc1ncn(CCC2CCN(C=O)CC2)c2nc(Sc3ncccc3Br)nc1-2 [Example 551, 4-(2-{6-Amino-8-[(3-bromopyridin-2-yl)thio]-3 H-purin-3-yl}ethyl)piperidine-1-carbaldehyde]	0.00
C=Cn1cnc(N)c2nc(Sc3cc4c(cc3Br)OCO4)nc1-2 [Example 499, 8-(6-bromo-benzo[1,3]dioxol-5-ylsulfanyl)-3-vinyl-3H-6-ylamine]	21
Nc1ncn(CCC2=CCN(Cc3ccccc3)CC2)c2nc(Sc3cc4c(cc3Br)OCO4)nc1-2 [Example 425, 3-[2-(1-Benzyl-1,2,3,6-tetrahydropyridin-4-yl)ethyl]-8-[(6-bromo-1,3-benzodioxol-5-yl)thio]-3H-purin-6-amine]	6
CCC(Cn1cnc(N)c2nc(Sc3cc4c(cc3Br)OCO4)nc1-2)c1ccccc1 (centres unmarked) [Example 58, 8-(6-bromo-benzo[1,3]dioxol-5-ylsulfanyl)-3-(2-phenyl-butyl)-3H-purin-6-ylamine]	8
Nc1ncn(CC[C@H]2CCCN(C=O)C2)c2nc(Sc3cc4c(cc3Br)OCO4)nc1-2 [Example 603, (3R)-3-(2-{6-Amino-8-[(6-bromo-1,3-benzodioxol-5-yl)thio]-3 H-purin-3-yl}ethyl)piperidine-1-carbaldehyde]	4.00

same assay, conditions: BODIPY-GM 10 nM, Hsp90 30 nM

SMILES	IC50 [µM]
COc1ccc(OC)c(Sc2nc3c(N)ncnc3n2CCN2CCN(C(C)C)CC2)c1 [Example 493, 8-[(2,5-Dimethoxyphenyl)thio]-9-[2-(4-isopropylpiperazin-1-yl)ethyl]-9 H-purin-6-amine]	8.9
COc1ccc(OC)c(Sc2nc3c(N)ncnc3n2CCC2CC(C)(C)NC(C)(C)C2)c1 [Example 361, 8-[(2,5-Dimethoxyphenyl)thio]-9-[2-(2,2,6,6-tetramethylpiperidin-4-yl)ethyl]-9H-purin-6-amine]	2.9
Nc1ncnc2c1nc(Sc1ncccc1Br)n2CCC1CCN(C=O)CC1 [Example 550, 4-(2-{6-Amino-8-[(3-bromopyridin-2-yl)thio]-9 H-purin-9-yl}ethyl)piperidine-1-carbaldehyde]	> 5
COc1ccc(OC)c(Sc2nc3c(N)ncnc3n2CCc2ccc(Cl)cc2)c1 [Example 248, 9-[2-(4-Chlorophenyl)ethyl]-8-[(2,5-dimethoxyphenyl)thio]-9H-purin-6-amine]	> 5
CC(C)(C)OC(=O)N[C@H]1CC[C@H](CCn2c(Sc3cc4c(cc3Br)OCO4)nc3c(N)ncnc32)CC1 [Example 455, tert-Butyl [trans-4-(2-{6-amino-8-[(6-bromo-1,3-benzodioxol-5-yl)thio]-9H-purin-9-yl}ethyl)cyclohexyl]carbamate]	0.06
CC(=O)N1CCC(CCn2c(Sc3ccc4c(c3)OC(F)(F)O4)nc3c(N)ncnc32)CC1 [Example 571, 9-[2-(1-Acetylpiperidin-4-yl)ethyl]-8-[(2,2-difluoro-1,3-benzodioxol-5-yl)thio]-9 H-purin-6-amine]	> 5
C[C@@H](C(=O)N1CCC(CCn2c(Sc3cc4c(cc3Br)OCO4)nc3c(N)ncnc32)CC1)N(C)C(=O)OC(C)(C)C [Example 715, tert-Butyl{(1S)-2-[4-(2-{6-amino-8-[(6-bromo-1,3-benzodioxol-5-yl)thio]-9H-purin-9-yl}ethyl)piperidin-1-yl]-1-methyl-2-oxoethyl}methylcarbamate]	> 2
Nc1ncnc2c1nc(Sc1cc3c(cc1Br)OCO3)n2CCc1ccc(-c2ccccc2)cc1 [Example 171, 9-(2-Biphenyl-4-yl-ethyl)-8-(6-bromo-benzo[1,3]dioxol-5-ylsulfanyl)-9H-purin-6-ylamine]	> 25
Nc1ncnc2c1nc(Sc1ccc(NC=O)c(O)c1)n2CCc1ccccc1 [Example 267, N-(4-{[6-Amino-9-(2-phenylethyl)-9H-purin-8-yl]thio}-2-hydroxyphenyl)formamide]	> 25
CC(C)(C)OC(=O)N1CCCC(CCCn2c(Sc3cc4c(cc3Br)OCO4)nc3c(N)ncnc32)C1 (centres unmarked) [Example 637, tert-Butyl 3-(3-{6-amino-8-[(6-bromo-1,3-benzodioxol-5-yl)thio]-9 H-purin-9-yl}propyl)piperidine-1-carboxylate]	> 25
Nc1ncnc2c1nc(Sc1cc3c(cc1Br)OCO3)n2CCc1ccccc1Cl [Example 53, 8-(6-Bromo-benzo[1,3]dioxol-5-ylsulfanyl)-9-[2-(2-chloro-phenyl)-ethyl]-9H-purin-6-ylamine]	0.045
Nc1ncnc2c1nc(Sc1cc3c(cc1Br)OCO3)n2CCC(N)C1CC1 (centres unmarked) [Example 687, 9-(3-Amino-3-cyclopropylpropyl)-8-[(6-bromo-1,3-benzodioxol-5-yl)thio]-9H-purin-6-amine]	0.08
CC(=O)N1CCCC(CCn2c(Sc3cc4c(cc3Br)OCO4)nc3c(N)ncnc32)C1 (centres unmarked) [Example 400, 9-[2-(1-Acetylpiperidin-3-yl)ethyl]-8-[(6-bromo-1,3-benzodioxol-5-yl)thio]-9H-purin-6-amine]	6
COc1ccc(OC)c(Sc2nc3c(N)ncnc3n2CCc2ccccc2[N+](=O)[O-])c1 [Example 205, 8-(2,5-Dimethoxy-phenylsulfanyl)-9-[2-(2-nitro-phenyl)-ethyl]-9H-purin-6-ylamine]	0.24
CS(=O)(=O)N1CCCCC1CCn1c(Sc2cc3c(cc2Br)OCO3)nc2c(N)ncnc21 (centres unmarked) [Example 372, 8-[(6-Bromo-1,3-benzodioxol-5-yl)thio]-9-{2-[1-(methylsulfonyl)piperidin-2-yl]ethyl}-9H-purin-6-amine]	0.1
COc1ccc(OC)c(Sc2nc3c(N)ncnc3n2CCn2ccnc2)c1 [Example 335, 8-[(2,5-Dimethoxyphenyl)thio]-9-[2-(1H-imidazol-1-yl)ethyl]-9H-purin-6-amine]	3
CC(C)(C)OC(=O)N1CCC(CCn2c(Sc3cc4c(cc3Br)OCO4)nc3c(N)ncnc32)C1 (centres unmarked) [Example 415, tert-Butyl 3-(2-{6-amino-8-[(6-bromo-1,3-benzodioxol-5-yl)thio]-9H-purin-9-yl}ethyl)pyrrolidine-1-carboxylate]	0.46
COc1ccc(C2(Cn3c(Sc4cc5c(cc4Br)OCO5)nc4c(N)ncnc43)CC2)cc1 [Example 59, 8-(6-Bromo-benzo[1,3]dioxol-5-ylsulfanyl)-9-[1-(4-methoxy-phenyl)-cyclopropylmethyl]-9H-purin-6-ylamine]	> 25
Nc1ncnc2c1nc(Sc1cccc(OC(F)F)c1)n2CCc1c(Cl)cccc1Cl [Example 253, 9-[2-(2,6-Dichlorophenyl)ethyl]-8-{[3-(difluoromethoxy)phenyl]thio}-9H-purin-6-amine]	> 8
CO[C@H](C)C(=O)N1CCC(CCn2c(Sc3cc4c(cc3Br)OCO4)nc3c(N)ncnc32)CC1 [Example 725, 8-[(6-Bromo-1,3-benzodioxol-5-yl)thio]-9-(2-{1-[(2R)-2-methoxypropanoyl]piperidin-4-yl}ethyl)-9H-purin-6-amine]	0.1
CC(=O)N1CCC(CCn2c(Sc3nc(C)c(CC(N)=O)s3)nc3c(N)ncnc32)CC1 [Example 660, 2-[2-({9-[2-(1-Acetylpiperidin-4-yl)ethyl]-6-amino-9H-purin-8-yl}thio)-4-methyl-1,3-thiazol-5-yl]acetamide]	> 5
Nc1ncnc2c1nc(Sc1cc(OCc3ccccc3)c(OCc3ccccc3)cc1Br)n2CCC1CCN(C=O)CC1 [Example 553, 4-[2-(6-Amino-8-{[4,5-bis (benzyloxy)-2-bromophenyl]thio}-9 H-purin-9-yl)ethyl]piperidine-1-carbaldehyde]	> 5
COc1ccc(OC)c(Sc2nc3c(N)ncnc3n2CCc2cccc(Cl)c2Cl)c1 [Example 73, 9-[2-(2,3-Dichloro-phenyl)-ethyl]-8-(2,5-dimethoxy-phenylsulfanyl)-9H-purin-6-ylamine]	> 3
COc1ccc(Sc2nc3c(N)ncnc3n2CCc2ccccc2)c(OC)c1 [Example 15, 8-(2,4-Dimethoxy-phenylsulfanyl)-9-phenethyl-9H-purin-6-ylamine]	6.5
Nc1ncnc2c1nc(Sc1cc3c(cc1Br)OCO3)n2CCC(N)C1CCCCC1 (centres unmarked) [Example 690, 9-(3-Amino-3-cyclohexylpropyl)-8-[(6-bromo-1,3-benzodioxol-5-yl)thio]-9H-purin-6-amine]	0.29
Nc1ncnc2c1nc(Sc1cccc(OC(F)F)c1)n2CCc1ccccc1 [Example 252, 8-{[3-(Difluoromethoxy)phenyl]thio}-9-(2-phenylethyl)-9H-purin-6-amine]	> 25

Source: patent US7595401B2, “Therapeutic compounds and their use in cancer” (Myriad Pharmaceuticals, Inc., priority 2006, dated 2009)
